{
  "source": "patent EP0414895A1",
  "about": "“OROTATE OF $g(a)-AMINO-$g(b)-PHENYL-BUTYRIC ACID” (NAUCHNO-PROIZVODSTVENNOE OBIEDINENIE \"BIOLAR\", priority 1989, dated 1990)",
  "key": {"Mäuse [1]": {"test_system": "Mäuse", "assay": "Kalziumchlorid arrhythmia model, LD50 of Kalziumchlorid", "type": "in vivo", "details": "Kalziumchlorid i.v. combined with compound 50 mg/kg", "protocol": "Die antiarrhythmischen Eigenschaften der erfindungsgemässen Verbindung wurden auch am Modell der Kalziumchloridarrhythmie untersucht. Der Mäusengruppe (I0 Gruppe) wurde einmalig die Kalziumchloridlösung intravenös im einzelnen und in Kombination mit γ -Amino-β -phenylbuttersäurehydrochlorid eingeführt. Die Dosis der letzteren betrug 50 mg/kg. Es wurde LD₅₀ für Kalziumchlorid bestimmt."}, "Mäuse [2]": {"test_system": "Mäuse", "assay": "Acute toxicity, mice", "type": "in vivo", "protocol": "Die akute Toxizität der beanspruchten Verbindung wurde an Mäusen und Ratten (die Gruppe aus 9 bis I2 Tieren) bei der intravenösen, intraperitonealen Einführung der beanspruchten Verbindung sowie bei deren Einführung in den Magen bestimmt.\nEs wurden der letale Ausgang, der Allgemeinzustand, die Vergiftungssymptome registriert. LD₅₀ wurde nach der Methode von Lichtfield und Wilcoxon bestimmt. LD₅₀ der neuen Verbindung beträgt für Mäuse bei der intravenösen Einführung 580 mg/kg, bei der intraperitonealen Einführung I450 mg/kg, bei der Einführung in den Magen 4600 mg/kg; für Ratten bei der intraperitonealen Einführung beträgt LD₅₀ 883 mg/kg, bei der Einführung in den Magen - über I500 mg/kg."}, "Ratten": {"test_system": "Ratten", "assay": "Habituation study over 6 months: motor activity of rats in actometer", "type": "in vivo", "text": "Das Ausbleiben der Gewöhnung an die beanspruchte Verbindung wurde auch in den Rattenversuchen festgestellt, die im Laufe von 6 Monaten zur Bestimmung der motorischen Aktivität der Ratten durchgeführt wurden."}, "[3]": {"assay": "Solubility (description of the substance)", "type": "physicochemical"}, "Mäuse [4]": {"test_system": "Mäuse", "assay": "Anticonvulsant effect against Pikrotoxin, Bicucullin, Korazol, Thiosemikarbazid", "type": "in vivo", "text": "Ausserdem wurde die krampflösende Wirkung der neuen Verbindung untersucht. Die Untersuchung wurde an männlichen weissen Mäusen bei der Einführung von Pikrotoxin, Bicucullin, Korazol, Thiosemikarbazid durchgeführt."}, "Mäuse [5]": {"test_system": "Mäuse", "assay": "Ethanol intoxication, survival", "type": "in vivo", "text": "Es wurde auch der Einfluss der erfindungsgemässen Verbindung auf die durch Athanol erzeugte Intoxikation untersucht. In den Versuchen an Mäusen (in jedem Versuch wurde eine Gruppe von I0 Tieren untersucht) wurde die Überlebensdauer der Tiere bestimmt. […] Athanol wurde I Stunde nach der Einführung der neuen Verbindung verabreicht. Die Ergebnisse dieser Untersuchung sind in der Tabelle 2 dargestellt."}, "[6]": {"details": "male white mice, convulsants Pikrotoxin, Bicucullin, Korazol, Thiosemikarbazid"}},
  "note": "Where a name gives a salt, the structure may show the parent alone.",
  "data": [
    {"compound": "NCC(CC(=O)O)c1ccccc1", "note": "(stereo not drawn) [γ-Amino-β-phenylbutter-säurehydrochlorid, γ -Amino- β -phenylbuttersäurehydrochlorid, reference compound]", "values": [
      {"measurement": "Einfluss auf LD₅₀ von Kalziumchlorid", "setting": "Mäuse [1]", "result": "keinen Einfluss"}
    ]},
    {"compound": "γ -Amino- β -phenylbuttersäureorotat [Erfindungsgemässe Verbindung]", "values": [
      {"measurement": "LD₅₀", "setting": "Mäuse [2]; into the stomach", "result": 4600, "unit": "mg/kg"},
      {"measurement": "LD₅₀", "setting": "Mäuse [2]; intravenous", "result": 580, "unit": "mg/kg"},
      {"measurement": "Zahl der Impulse im Aktometer innerhalb von 30 min", "setting": "Ratten; day 1, 25 mg/kg", "result": "183±24"},
      {"measurement": "Zahl der Impulse im Aktometer innerhalb von 30 min", "setting": "Ratten; day 1, 75 mg/kg", "result": "111±13"},
      {"measurement": "Zahl der Impulse im Aktometer innerhalb von 30 min", "setting": "Ratten; day 1, 200 mg/kg", "result": "15±16"},
      {"measurement": "Zahl der Impulse im Aktometer innerhalb von 30 min", "setting": "Ratten; day 35, 25 mg/kg", "result": "171±18"},
      {"measurement": "Zahl der Impulse im Aktometer innerhalb von 30 min", "setting": "Ratten; day 35, 75 mg/kg", "result": "129±14"},
      {"measurement": "Zahl der Impulse im Aktometer innerhalb von 30 min", "setting": "Ratten; day 35, 200 mg/kg", "result": "64±18"},
      {"measurement": "Zahl der Impulse im Aktometer innerhalb von 30 min", "setting": "Ratten; day 70, 25 mg/kg", "result": "126±27"},
      {"measurement": "Zahl der Impulse im Aktometer innerhalb von 30 min", "setting": "Ratten; day 70, 75 mg/kg", "result": "81±13"},
      {"measurement": "Zahl der Impulse im Aktometer innerhalb von 30 min", "setting": "Ratten; day 70, 200 mg/kg", "result": "43±15"},
      {"measurement": "Zahl der Impulse im Aktometer innerhalb von 30 min", "setting": "Ratten; day 85, 25 mg/kg", "result": "147±19"},
      {"measurement": "Zahl der Impulse im Aktometer innerhalb von 30 min", "setting": "Ratten; day 85, 75 mg/kg", "result": "109±17"},
      {"measurement": "Zahl der Impulse im Aktometer innerhalb von 30 min", "setting": "Ratten; day 85, 200 mg/kg", "result": "67±21"},
      {"measurement": "Zahl der Impulse im Aktometer innerhalb von 30 min", "setting": "Ratten; day 107, 25 mg/kg", "result": "138±20"},
      {"measurement": "Zahl der Impulse im Aktometer innerhalb von 30 min", "setting": "Ratten; day 107, 75 mg/kg", "result": "137±14"},
      {"measurement": "Zahl der Impulse im Aktometer innerhalb von 30 min", "setting": "Ratten; day 107, 200 mg/kg", "result": "79±17"},
      {"measurement": "Zahl der Impulse im Aktometer innerhalb von 30 min", "setting": "Ratten; day 120, 25 mg/kg", "result": "145±23"},
      {"measurement": "Zahl der Impulse im Aktometer innerhalb von 30 min", "setting": "Ratten; day 120, 75 mg/kg", "result": "118±28"},
      {"measurement": "Zahl der Impulse im Aktometer innerhalb von 30 min", "setting": "Ratten; day 120, 200 mg/kg", "result": "71±13"},
      {"measurement": "Zahl der Impulse im Aktometer innerhalb von 30 min", "setting": "Ratten; day 138, 25 mg/kg", "result": "168±32"},
      {"measurement": "Zahl der Impulse im Aktometer innerhalb von 30 min", "setting": "Ratten; day 138, 75 mg/kg", "result": "169±31"},
      {"measurement": "Zahl der Impulse im Aktometer innerhalb von 30 min", "setting": "Ratten; day 138, 200 mg/kg", "result": "103±13"},
      {"measurement": "Zahl der Impulse im Aktometer innerhalb von 30 min", "setting": "Ratten; day 154, 25 mg/kg", "result": "127±17"},
      {"measurement": "Zahl der Impulse im Aktometer innerhalb von 30 min", "setting": "Ratten; day 154, 75 mg/kg", "result": "181±31"},
      {"measurement": "Zahl der Impulse im Aktometer innerhalb von 30 min", "setting": "Ratten; day 154, 200 mg/kg", "result": "85±24"},
      {"measurement": "Zahl der Impulse im Aktometer innerhalb von 30 min", "setting": "Ratten; day 180, 25 mg/kg", "result": "154±30"},
      {"measurement": "Zahl der Impulse im Aktometer innerhalb von 30 min", "setting": "Ratten; day 180, 75 mg/kg", "result": "148±13"},
      {"measurement": "Zahl der Impulse im Aktometer innerhalb von 30 min", "setting": "Ratten; day 180, 200 mg/kg", "result": "117±18"},
      {"measurement": "Löslichkeit in wässrigen Alkalilösungen", "setting": "[3]; aqueous alkali solutions", "result": "löslich"},
      {"measurement": "Wasserlöslichkeit", "setting": "[3]; water", "result": "schwer wasserlöslich"},
      {"measurement": "krampflösende Wirksamkeit", "setting": "Mäuse [4]; Dosen von 50 bis 200 mg/kg", "result": "keine ausgeprägte krampflösende Wirksamkeit"},
      {"measurement": "Anteil von Tieren, bei denen der Krampf beobachtet wurde", "setting": "Mäuse [4]; [6]", "result": "verringert nicht"},
      {"measurement": "Krampflatenzzeit", "setting": "Mäuse [4]; [6]", "result": "verlängert sicher"},
      {"measurement": "Überlebensdauer nach der Einführung von Äthanol", "setting": "Mäuse [5]; 50 mg/kg enteral chronic, 14 days + Äthylalkohol 11 ml/kg", "result": "283,8±16 sec"},
      {"measurement": "Überlebensdauer nach der Einführung von Äthanol", "setting": "Mäuse [5]; 50 mg/kg single + Äthylalkohol 11 ml/kg", "result": "213,6±8 sec"},
      {"measurement": "Verlängerung der Überlebensdauer der Tiere", "setting": "Mäuse [5]; chronic administration, ethanol intoxication", "result": 30, "unit": "%"}
    ]}
  ]
}
